Experiments:
[1] = molecular target: EGFR (L858R) (Homo sapiens, UniProt P00533, L858R); experiment: HotSpot radiometric kinase assay, inhibition of EGFR L858R mutant; assay type: biochemical; settings: 33P ATP, room temperature, 120 m
Description: (§1) Biochemical Assays for inhibition of wild-type and mutant EGFRs
(§2) Briefly, specific kinase/substrate pairs along with required cofactors were prepared in reaction buffer; 20 mM HEPES pH 7.5, 10 mM […], 1 mM EGTA, 0.02% Brij35, 0.02 mg/ml BSA, 0.1 mM Na3VO4, 2 mM DTT, 1% DMSO. Compounds were delivered into the reaction, followed ~20 minutes later by addition of a mixture of ATP (Sigma, St. Louis MO) and ^33P ATP (Perkin Elmer, Waltham MA) to a final concentration of […]. Reactions were carried out at room temperature for 120 m, followed by spotting of the reactions onto P81 ion exchange filter paper (Whatman Inc., Piscataway, NJ). Unbound phosphate was removed by extensive washing of filters in 0.75% phosphoric acid. […] IC50 values and curve fits were obtained using Prism (GraphPad Software).

[2] = molecular target: EGFR (L858R/T790M) (Homo sapiens, UniProt P00533, L858R/T790M); experiment: HotSpot radiometric kinase assay, inhibition of EGFR L858R/T790M mutant; assay type: biochemical; settings: 33P ATP, room temperature, 120 m
Description: as §1, §2

[3] = molecular target: EGFR (L858R/T790M/C797S) (Homo sapiens, UniProt P00533, C797S/L858R/T790M); experiment: HotSpot radiometric kinase assay, inhibition of EGFR L858R/T790M/C797S mutant; assay type: biochemical; settings: 33P ATP, room temperature, 120 m
Procedure, shortened: (§3)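 Kinase/substrate pairs in 20 mM HEPES pH 7.5, 10 mM MgCl2, 1 mM EGTA, 0.02% Brij35, 0.02 mg/ml BSA, 0.1 mM Na3VO4, 2 mM DTT, 1% DMSO, preincubated ~20 min with compound. Reaction started with ATP/33P-ATP ([…]), run 120 min at room temperature; phosphorylation read by P81 filter binding, IC50 from curve fits.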

[4] = molecular target: EGFR (D746-750) (Homo sapiens, UniProt P00533, DEL746-750); experiment: HotSpot radiometric kinase assay, inhibition of EGFR 746-750 mutant; assay type: biochemical; settings: 33P ATP, room temperature, 120 m
Procedure, shortened: as §3

[5] = molecular target: EGFR (D746-750/C797S) (Homo sapiens, UniProt P00533, C797S/DEL746-750); experiment: HotSpot radiometric kinase assay, inhibition of EGFR 746-750/C797S mutant; assay type: biochemical; settings: 33P ATP, room temperature, 120 m
Procedure, shortened: as §3

[6] = molecular target: EGFR (D770_N771insNPG) (Homo sapiens, UniProt P00533, INS770NPG); experiment: HotSpot radiometric kinase assay, inhibition of EGFR (D770_N771insNPG) mutant; assay type: biochemical; settings: 33P ATP, room temperature, 120 m
Procedure, shortened: as §3

[7] = molecular target: EGFR WT (Homo sapiens, UniProt P00533); experiment: HotSpot radiometric kinase assay, inhibition of EGFR WT; assay type: biochemical; settings: 33P ATP, room temperature, 120 m
Description: as §1, §2

[8] = molecular target: T1, pEGFR, PC-9 cells (d746-750 EGFR) (Homo sapiens, UniProt P00533, DEL746-750); experiment: Cellular EGFR phosphorylation assay (LANCE Ultra TR-FRET) in PC-9 cells; assay type: cell-based; settings: 4 hours at 37° C., read-out: PC-9 pEGFR IC50
T1 construct: pEGFR (Tyr1068) TR-FRET
Procedure, shortened: (§4)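 4 h compound treatment at 37 °C, 9-point 3-fold titration. EGF (40 ng/mL, final 10 min) in A431 only. Tyr1068 phosphorylation measured by TR-FRET and IC50 fitted.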

[9] = molecular target: T2, pEGFR, NCI-H1975 cells (L858R/T790M EGFR) (Homo sapiens, UniProt P00533, L858R/T790M); experiment: Cellular EGFR phosphorylation assay (LANCE Ultra TR-FRET) in NCI-H1975 cells; assay type: cell-based; settings: 4 hours at 37° C., read-out: H1975 pEGFR IC50
T2 construct: pEGFR (Tyr1068) TR-FRET
Procedure, shortened: as §4

[10] = molecular target: T3, pEGFR, A431 cells (wildtype EGFR) (Homo sapiens, UniProt P00533); experiment: Cellular EGFR phosphorylation assay (LANCE Ultra TR-FRET) in A431 cells; assay type: cell-based; settings: 4 hours at 37° C., 40 ng/mL EGF for the final 10 minutes, read-out: A431 pEGFR IC50
T3 construct: pEGFR (Tyr1068) TR-FRET
Procedure, shortened: as §4

[11] = tested on: PC-9 cells; experiment: 5-Day CellTiter Glo (CTG) cell proliferation assay, PC-9; assay type: cell-based; settings: Homo sapiens; PC-9 cells (d746-750 EGFR), 5-day CTG proliferation, 120 hours; read-out: PC-9 IC50
Procedure, shortened: (§5)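 Luminescent ATP signal (CellTiter-Glo 2.0) after 120 hours of compound exposure gave IC50 values. PC-9 and HCC827 harbour EGFR d746-750; NCI-H1975 harbours L858R/T790M.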

[12] = tested on: NCI-H1975 cells; experiment: 5-Day CellTiter Glo (CTG) cell proliferation assay, NCI-H1975; assay type: cell-based; settings: Homo sapiens; NCI-H1975 cells (L858R/T790M EGFR), 5-day CTG proliferation, 120 hours; read-out: H1975 IC50
Procedure, shortened: as §5

[13] = tested on: HCC827 cells; experiment: 5-Day CellTiter Glo (CTG) cell proliferation assay, HCC827; assay type: cell-based; settings: Homo sapiens; HCC827 cells (d746-750 EGFR), 5-day CTG proliferation, 120 hours; read-out: HCC827 IC50
Procedure, shortened: as §5

[14] = tested on: BaF3 cells with engineered EGFR L858R/T790M/C797S; experiment: 3-Day CellTiter Glo (CTG) cell proliferation assay, BaF3 EGFR L858R/T790M/C797S; assay type: cell-based; settings: Mus musculus, 3-day CTG proliferation, 72 hours
Procedure, shortened: (§6)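 Growth inhibition in transgene-bearing BaF3 lines was scored after three days of compound treatment by CellTiter-Glo 2.0 ATP luminescence, yielding IC50 values.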

[15] = tested on: BaF3 cells with engineered EGFR L858R/C797S; experiment: 3-Day CellTiter Glo (CTG) cell proliferation assay, BaF3 EGFR L858R/C797S; assay type: cell-based; settings: Mus musculus, 3-day CTG proliferation, 72 hours
Procedure, shortened: as §6

[16] = tested on: BaF3 cells with engineered EGFR d746-750/T790M; experiment: 3-Day CellTiter Glo (CTG) cell proliferation assay, BaF3 EGFR d746-750/T790M; assay type: cell-based; settings: Mus musculus; BaF3 EGFR d746-750/T790M cells, 3-day CTG proliferation, 72 hours
Procedure, shortened: as §6

Sequence of EGFR (L858R/T790M/C797S) (P00533 25-1210 T790M/C797S/L858R): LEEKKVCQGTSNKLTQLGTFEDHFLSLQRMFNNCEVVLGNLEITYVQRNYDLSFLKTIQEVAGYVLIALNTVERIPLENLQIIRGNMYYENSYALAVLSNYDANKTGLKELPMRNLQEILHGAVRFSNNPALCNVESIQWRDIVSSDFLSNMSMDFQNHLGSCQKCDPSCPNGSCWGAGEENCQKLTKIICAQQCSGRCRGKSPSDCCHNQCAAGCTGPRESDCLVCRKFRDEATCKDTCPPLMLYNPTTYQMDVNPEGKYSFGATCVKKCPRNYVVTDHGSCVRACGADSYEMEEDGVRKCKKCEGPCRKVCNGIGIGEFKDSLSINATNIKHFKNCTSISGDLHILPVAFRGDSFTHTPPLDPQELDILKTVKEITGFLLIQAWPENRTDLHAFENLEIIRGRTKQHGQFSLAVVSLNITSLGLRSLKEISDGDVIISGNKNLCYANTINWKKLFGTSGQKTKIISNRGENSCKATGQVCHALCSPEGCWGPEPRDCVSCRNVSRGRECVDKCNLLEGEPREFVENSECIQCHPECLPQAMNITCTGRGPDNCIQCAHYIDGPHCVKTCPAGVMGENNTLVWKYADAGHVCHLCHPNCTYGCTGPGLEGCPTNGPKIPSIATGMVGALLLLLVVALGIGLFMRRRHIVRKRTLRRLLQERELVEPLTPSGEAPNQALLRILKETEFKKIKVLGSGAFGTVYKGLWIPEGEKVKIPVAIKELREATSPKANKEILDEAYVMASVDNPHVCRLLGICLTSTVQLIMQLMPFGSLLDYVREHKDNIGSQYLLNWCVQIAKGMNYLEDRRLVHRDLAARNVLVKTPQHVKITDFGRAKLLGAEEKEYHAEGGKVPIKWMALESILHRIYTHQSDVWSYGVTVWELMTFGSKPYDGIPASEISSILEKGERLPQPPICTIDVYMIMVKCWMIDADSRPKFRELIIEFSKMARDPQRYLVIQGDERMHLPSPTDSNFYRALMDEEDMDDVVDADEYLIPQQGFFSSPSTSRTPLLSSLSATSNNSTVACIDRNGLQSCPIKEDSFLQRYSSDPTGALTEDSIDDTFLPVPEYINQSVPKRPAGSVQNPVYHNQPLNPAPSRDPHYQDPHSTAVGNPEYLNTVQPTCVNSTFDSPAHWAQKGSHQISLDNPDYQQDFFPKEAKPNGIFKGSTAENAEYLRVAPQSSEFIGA
Sequence of EGFR (D770_N771insNPG) (P00533 with tags, fused parts or gaps INS770NPG limits assumed): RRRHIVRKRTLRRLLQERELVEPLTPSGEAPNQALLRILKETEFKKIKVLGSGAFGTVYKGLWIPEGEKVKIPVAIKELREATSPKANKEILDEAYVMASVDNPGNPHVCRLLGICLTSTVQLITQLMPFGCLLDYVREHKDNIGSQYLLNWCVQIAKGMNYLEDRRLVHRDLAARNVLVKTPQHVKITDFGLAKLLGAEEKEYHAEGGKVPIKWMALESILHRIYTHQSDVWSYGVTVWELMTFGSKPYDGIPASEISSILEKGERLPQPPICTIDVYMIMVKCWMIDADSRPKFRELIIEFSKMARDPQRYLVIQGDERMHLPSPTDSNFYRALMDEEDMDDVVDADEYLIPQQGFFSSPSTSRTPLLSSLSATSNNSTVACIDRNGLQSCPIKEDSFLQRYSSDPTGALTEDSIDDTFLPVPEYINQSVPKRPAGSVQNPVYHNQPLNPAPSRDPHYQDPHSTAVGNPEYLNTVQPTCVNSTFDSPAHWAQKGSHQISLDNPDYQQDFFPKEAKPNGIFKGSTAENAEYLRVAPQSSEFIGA
T1 sequence (P00533 with tags, fused parts or gaps DEL746-750): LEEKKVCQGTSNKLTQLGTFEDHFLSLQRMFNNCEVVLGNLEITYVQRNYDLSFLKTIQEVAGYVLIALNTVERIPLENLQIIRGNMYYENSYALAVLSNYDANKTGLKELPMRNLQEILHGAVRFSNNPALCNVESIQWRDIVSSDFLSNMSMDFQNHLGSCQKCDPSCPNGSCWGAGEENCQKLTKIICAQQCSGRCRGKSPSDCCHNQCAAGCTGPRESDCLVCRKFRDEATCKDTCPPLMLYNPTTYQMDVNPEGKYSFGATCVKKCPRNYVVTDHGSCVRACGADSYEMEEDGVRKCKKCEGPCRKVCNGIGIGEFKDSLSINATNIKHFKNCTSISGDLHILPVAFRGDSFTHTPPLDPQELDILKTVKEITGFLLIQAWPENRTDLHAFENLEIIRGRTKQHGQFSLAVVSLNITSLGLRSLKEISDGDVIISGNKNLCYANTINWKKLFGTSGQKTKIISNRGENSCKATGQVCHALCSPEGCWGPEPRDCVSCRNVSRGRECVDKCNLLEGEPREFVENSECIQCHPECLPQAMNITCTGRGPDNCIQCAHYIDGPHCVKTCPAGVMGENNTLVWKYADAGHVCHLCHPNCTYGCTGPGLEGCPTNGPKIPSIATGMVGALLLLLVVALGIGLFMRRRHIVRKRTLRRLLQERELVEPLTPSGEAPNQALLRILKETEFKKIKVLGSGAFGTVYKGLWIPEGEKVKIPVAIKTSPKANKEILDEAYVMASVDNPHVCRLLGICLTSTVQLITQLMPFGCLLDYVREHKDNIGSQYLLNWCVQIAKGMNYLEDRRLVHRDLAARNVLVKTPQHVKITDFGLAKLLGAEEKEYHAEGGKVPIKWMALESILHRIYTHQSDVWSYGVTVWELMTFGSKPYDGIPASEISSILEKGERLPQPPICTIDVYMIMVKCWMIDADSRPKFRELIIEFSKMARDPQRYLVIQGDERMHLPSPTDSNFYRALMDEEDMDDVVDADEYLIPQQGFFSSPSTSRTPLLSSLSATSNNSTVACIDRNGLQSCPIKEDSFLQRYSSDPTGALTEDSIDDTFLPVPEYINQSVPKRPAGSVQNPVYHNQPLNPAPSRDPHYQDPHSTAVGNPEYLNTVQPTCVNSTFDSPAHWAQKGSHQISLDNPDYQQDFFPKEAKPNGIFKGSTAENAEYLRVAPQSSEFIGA
Sequence of EGFR (D746-750) (P00533 with tags, fused parts or gaps DEL746-750): as above

Row | SMILES | IC50 [1] | IC50 [2] | IC50 [3] | IC50 [4] | IC50 [5] | IC50 [6] | IC50 [7] | IC50 [8] | IC50 [9] | IC50 [10] | IC50 [11] | IC50 [12] | IC50 [13] | IC50 [14] | IC50 [15] | IC50 [16]
1 | CCOc1nn(CCO)c2c1/C=C/c1n[nH]c3c(C)nc(cc13)-c1c(C)nn(C)c1O[C@@H](C)CN(C)C2 [Ex. 47, 2-[(10S,17E)-16-ethoxy-6,8,10,12,20-pentamethyl-2,8,10,11,12,13-hexahydro-14H-5,3-(azenometheno)tripyrazolo[3,4-f:3′,4′-j:4″,3″-n][1,4]oxazacyclopentadecin-14-yl]ethan-1-ol] | 0.2 nM | 0.32 nM | 0.28 nM | 0.43 nM | 0.27 nM | 0.2 nM | 0.18 nM | 1.13 nM | 1.06 nM | 15.2 nM | 1.8 nM | 1.77 nM | 0.57 nM | 0.62 nM | 0.07 nM | 1.5 nM
2 | CCOc1nn([C@@H](C)CO)c2c1/C=C/c1n[nH]c3cnc(cc13)-c1c(C)nn(C)c1O[C@@H](C)CN(C1CC1)C2 [Ex. 110, (2S)-2-[(10S,17E)-12-cyclopropyl-16-ethoxy-6,8,10-trimethyl-2,8,10,11,12,13-hexahydro-14H-5,3-(azenometheno)tripyrazolo[3,4-f:3′,4′-j:4″,3″-n][1,4]oxazacyclopentadecin-14-yl]propan-1-ol] | 0.36 nM | 0.5 nM | 0.25 nM | 0.46 nM | 0.56 nM | 0.18 nM | 0.09 nM | 1.12 nM | 1.76 nM | 1.42 nM | 0.47 nM | 1.07 nM | 0.31 nM | 0.71 nM | 0.07 nM | 0.61 nM
3 | Cc1nn(C)c2c1-c1cc3c(n[nH]c3cn1)/C=C/c1c(OCC#N)nn(CCO)c1CN(C)C[C@H](C)O2 [Ex. 22, {[(10S,17E)-14-(2-hydroxyethyl)-6,8,10,12-tetramethyl-2,10,11,12,13,14-hexahydro-8H-5,3-(azenometheno)tripyrazolo[3,4-f:3′,4′-j:4″,3″-n][1,4]oxazacyclopentadecin-16-yl]oxy}acetonitrile] | 1.45 nM | 0.73 nM | 0.52 nM | 0.3 nM | 1.27 nM | 0.28 nM | 0.41 nM | 5.67 nM | 6.81 nM | 67.5 nM | 7.12 nM | 19.8 nM | 0.87 nM | 4.39 nM | 0.56 nM | 5.77 nM
4 | CCOc1nn(CCO)c2c1/C=C/c1n[nH]c3cnc(cc13)-c1c(C)nn(C)c1OC[C@@H](C)N(CC)C2 [Ex. 18, 2-[(11R,17E)-16-ethoxy-12-ethyl-6,8,11-trimethyl-2,8,10,11,12,13-hexahydro-14H-5,3-(azenometheno)tripyrazolo[3,4-f:3′,4′-j:4″,3″-n][1,4]oxazacyclopentadecin-14-yl]ethan-1-ol] | 0.51 nM | 1.11 nM | 4.08 nM | 0.45 nM | 1.32 nM | 0.59 nM | 0.43 nM | 3.24 nM | 8.91 nM | 15.6 nM | 2.14 nM | 19.5 nM | 0.53 nM | 2.46 nM | 0.29 nM | 1.44 nM
